In US9006237B2, “Fused pyrazine compounds useful for the treatment of degenerative and inflammatory diseases” (Janssen Pharmaceutica NV, priority 2007, dated 2015):

Biological target: T1, MAPKAPK5 (Homo sapiens, UniProt Q8IW41)
T1 sequence (Q8IW41 1-471 isoform Q8IW41-2): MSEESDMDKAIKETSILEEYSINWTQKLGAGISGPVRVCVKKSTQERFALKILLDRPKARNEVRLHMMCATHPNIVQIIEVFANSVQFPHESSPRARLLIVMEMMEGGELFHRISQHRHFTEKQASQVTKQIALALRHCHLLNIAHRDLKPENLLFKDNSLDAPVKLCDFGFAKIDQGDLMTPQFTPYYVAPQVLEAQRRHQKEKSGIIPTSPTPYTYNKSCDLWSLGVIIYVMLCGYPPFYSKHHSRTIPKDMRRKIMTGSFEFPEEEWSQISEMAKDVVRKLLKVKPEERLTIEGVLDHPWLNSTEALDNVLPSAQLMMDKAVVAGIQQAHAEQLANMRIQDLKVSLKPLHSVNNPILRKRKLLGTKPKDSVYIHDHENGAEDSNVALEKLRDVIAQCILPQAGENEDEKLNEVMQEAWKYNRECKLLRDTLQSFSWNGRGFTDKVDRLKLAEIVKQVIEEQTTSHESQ
Experiment: MAPKAP-K5 assay (FlashPlate, 33P-ATP)
Assay type: biochemical
Settings: 0.6 μM ATP; 3 μM peptide substrate; room temperature 30 minutes
Protocol: 3 μM MAPKAP-K5 peptide substrate

| SMILES | IC50 [nM] |
| --- | --- |
| O=C1NCc2cc(-c3cnc(Nc4nc(CN5CCOCC5)cs4)c4nccn34)ccc21 [Example 1, 5-(8-(4-(morpholinomethyl)thiazol-2-ylamino)imidazo[1,2-a]pyrazin-5-yl)isoindolin-1-one] | 101 to 500 |
| c1nc2c(Nc3nc(CN4CCOCC4)cs3)ncc(-c3cn[nH]c3)n2n1 [Example 3, N-(5-(1H-pyrazol-4-yl)-[1,2,4]triazolo[1,5-a]pyrazin-8-yl)-4-(morpholinomethyl)thiazol-2-amine] | > 1000 |
| NC(=O)c1cc(-c2cnc(Nc3nc(CN4CCCCC4)cs3)c3ncnn23)co1 [Example 4, 4-(8-(4-(piperidin-1-ylmethyl)thiazol-2-ylamino)-[1,2,4]triazolo[1,5-a]pyrazin-5-yl)furan-2-carboxamide] | 1 to 100 |
| O=C1NCc2cc(-c3cnc(Nc4nccs4)c4nccn34)ccc21 [Example 6, 5-(8-(thiazol-2-ylamino)imidazo[1,2-a]pyrazin-5-yl)isoindolin-1-one] | 101 to 500 |
| c1csc(Nc2ncc(-c3cn[nH]c3)n3ccnc23)n1 [Example 7, N-(5-(1H-pyrazol-4-yl)imidazo[1,2-a]pyrazin-8-yl)thiazol-2-amine] | > 1000 |
| O=C1NCc2cc(-c3cnc(Nc4nc(CN5CCCCC5)cs4)c4nccn34)ccc21 [Example 9, 5-(8-(4-(piperidin-1-ylmethyl)thiazol-2-ylamino)imidazo[1,2-a]pyrazin-5-yl)isoindolin-1-one] | 1 to 100 |
| Cc1nc(Nc2ncc(-c3ccc4c(c3)CNC4=O)n3ccnc23)sc1C(=O)N(C)C [Example 10, N,N,4-trimethyl-2-(5-(1-oxoisoindolin-5-yl)imidazo[1,2-a]pyrazin-8-ylamino)thiazole-5-carboxamide] | 101 to 500 |
| Cc1cnc(Nc2ncc(-c3ccc4c(c3)CNC4=O)n3ccnc23)s1 [Example 11, 5-(8-(5-methylthiazol-2-ylamino)imidazo[1,2-a]pyrazin-5-yl)isoindolin-1-one] | 501 to 1000 |
| O=C1NCc2cc(-c3cnc(Nc4nc5c(s4)CCC5)c4nccn34)ccc21 [Example 12, 5-(8-(5,6-dihydro-4H-cyclopenta[d]thiazol-2-ylamino)imidazo[1,2-a]pyrazin-5-yl)isoindolin-1-one] | > 1000 |
| O=C1NCc2cc(-c3cnc(Nc4ncc(C(=O)N5CCOCC5)s4)c4nccn34)ccc21 [Example 13, 5-(8-(5-(morpholine-4-carbonyl)thiazol-2-ylamino)imidazol[1,2-a]pyrazin-5-yl)isoindolin-1-one] | 501 to 1000 |
| O=C1NCc2cc(-c3cnc(Nc4nnc(CCN5CCCCC5)s4)c4nccn34)ccc21 [Example 14, 5-(8-(5-(2-(piperidin-1-yl)ethyl)-1,3,4-thiadiazol-2-ylamino)imidazo[1,2-a]pyrazin-5-yl)isoindolin-1-one] | 501 to 1000 |
| c1cn2c(-c3cn[nH]c3)cnc(Nc3ncc(CN4CCOCC4)s3)c2n1 [Example 15, N-(5-(1H-pyrazol-4-yl)imidazo[1,2-a]pyrazin-8-yl)-5-(morpholinomethyl)thiazol-2-amine] | > 1000 |
| O=C1NCc2cc(-c3cnc(Nc4ncc(CN5CCOCC5)s4)c4nccn34)ccc21 [Example 16, 5-(8-(5-(morpholinomethyl)thiazol-2-ylamino)imidazo[1,2-a]pyrazin-5-yl)isoindolin-1-one] | 101 to 500 |
| CN(C)Cc1cnc(Nc2ncc(-c3cn[nH]c3)n3ccnc23)s1 [Example 17, N-(5-(1H-pyrazol-4-yl)imidazo[1,2-a]pyrazin-8-yl)-5-((dimethylamino)methyl)thiazol-2-amine] | > 1000 |
| CC(C)N1CCN(Cc2cnc(Nc3ncc(-c4ccc5c(c4)CNC5=O)n4ccnc34)s2)CC1 [Example 18, 5-(8-(5-((4-isopropylpiperazin-1-yl)methyl)thiazol-2-ylamino)imidazo[1,2-a]pyrazin-5-yl)isoindolin-1-one] | 101 to 500 |
| O=C1NCc2cc(-c3cnc(Nc4nncs4)c4nccn34)ccc21 [Example 19, 5-(8-(1,3,4-thiadiazol-2-ylamino)imidazo[1,2-a]pyrazin-5-yl)isoindolin-1-one] | > 1000 |
| CN1CCN(c2nnc(Nc3ncc(-c4ccc5c(c4)CNC5=O)n4ccnc34)s2)CC1 [Example 20, 5-(8-(5-(4-methylpiperazin-1-yl)-1,3,4-thiadiazol-2-ylamino)imidazo[1,2-a]pyrazin-5-yl)isoindolin-1-one] | 501 to 1000 |
| CC(C)N1CCN(C(=O)c2cnc(Nc3ncc(-c4cn[nH]c4)n4ccnc34)s2)CC1 [Example 23] | > 1000 |
| O=C1NCc2cc(-c3cnc(Nc4ncc(CN5CCCCC5)s4)c4nccn34)ccc21 [Example 24, 5-(8-(5-(piperidin-1-ylmethyl)thiazol-2-ylamino)imidazo[1,2-a]pyrazin-5-yl)isoindolin-1-one] | > 1000 |
| c1nc2c(Nc3nc(CN4CCCCC4)cs3)ncc(-c3cn[nH]c3)n2n1 [Example 25, N-(5-(1H-pyrazol-4-yl)-[1,2,4]triazolo[1,5-a]pyrazin-8-yl)-4-(piperidin-1-ylmethyl)thiazol-2-amine] | > 1000 |
